Test results as given in article PMC4609575 (The international journal of biochemistry & cell biology, 2010).
Where two headings read alike, the source gives them in different places.

Key:
[1] = target: T1, hα3β4 AChR (Homo sapiens, UniProt P30926+P32297); experiment: cell-based; assay type: cell-based
[2] = target: T1, hα3β4 AChR; assay type: binding; conditions: for nH: radioligand [3H]ibogaine
[3] = target: T1, hα3β4 AChR; assay type: binding; conditions: for nH: radioligand [3H]TCP
[4] = target: T1, hα3β4 AChR; experiment: Binding kinetics by non-linear chromatography on the CMAC-hα3β4 AChR column
[5] = target: T1, hα3β4 AChR; assay type: binding; conditions: for ΔG^20: 293 K; for Ea (energy of activation of the dissociation process): Arrhenius plot; for ΔH°: van't Hoff plot
[6] = test system: rat α3β4 AChRs; conditions: 86Rb+ efflux, rat α3β4 AChRs ref Hernandez et al., 2000; cited from earlier work
[7] = target: T1, hα3β4 AChR; experiment: Equilibrium binding of [3H]ibogaine to hα3β4 AChR membranes
[8] = Desensitized state (1 µM (−)-nicotine)
[9] = AChR in the resting state (κ-BTx), 20 °C
[10] = Epibatidine treated column (desensitized state)
[11] = κ-BTx treated column (resting state)

T1 sequence (P32297 32-505): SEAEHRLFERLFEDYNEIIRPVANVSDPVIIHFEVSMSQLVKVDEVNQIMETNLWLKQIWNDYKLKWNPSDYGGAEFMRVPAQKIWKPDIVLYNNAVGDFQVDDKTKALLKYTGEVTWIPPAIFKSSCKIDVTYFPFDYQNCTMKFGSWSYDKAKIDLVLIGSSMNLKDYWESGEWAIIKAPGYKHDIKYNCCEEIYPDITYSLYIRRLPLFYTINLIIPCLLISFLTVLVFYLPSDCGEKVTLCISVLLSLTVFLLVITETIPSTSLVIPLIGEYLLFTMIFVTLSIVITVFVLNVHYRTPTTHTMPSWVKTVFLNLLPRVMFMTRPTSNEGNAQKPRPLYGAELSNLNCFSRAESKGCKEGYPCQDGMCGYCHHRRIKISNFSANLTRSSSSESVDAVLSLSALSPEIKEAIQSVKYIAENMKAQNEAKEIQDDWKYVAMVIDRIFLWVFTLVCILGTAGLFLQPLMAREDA
T1 sequence (P30926 22-498): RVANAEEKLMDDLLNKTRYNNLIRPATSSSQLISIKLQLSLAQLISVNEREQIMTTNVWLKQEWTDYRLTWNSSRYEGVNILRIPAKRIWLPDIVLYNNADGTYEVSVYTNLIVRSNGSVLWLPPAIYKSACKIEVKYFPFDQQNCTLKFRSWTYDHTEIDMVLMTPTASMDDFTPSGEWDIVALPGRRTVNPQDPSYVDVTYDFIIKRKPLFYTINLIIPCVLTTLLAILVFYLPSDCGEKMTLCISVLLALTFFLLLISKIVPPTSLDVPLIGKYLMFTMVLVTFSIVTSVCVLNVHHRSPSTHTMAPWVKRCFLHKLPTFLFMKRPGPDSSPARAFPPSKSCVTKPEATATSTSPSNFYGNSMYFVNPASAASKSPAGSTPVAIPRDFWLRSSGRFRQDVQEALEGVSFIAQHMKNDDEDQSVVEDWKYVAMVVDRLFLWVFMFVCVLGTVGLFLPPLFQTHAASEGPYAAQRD

**Q.** Which results are given for “7-ethyl-6,2,7,8,9,10,12,13-octahydro-2-methoxy-6,9-methano 5H-pyrido(1′,2′:1,2-azepine (4,5-)indole) [Ibogaine]”?
**A.** nH (Hill coefficient) [1]: 1.24 ± 0.07; fold higher potency than PCP in inhibiting (±)-epibatidine-induced Ca2+ influx ([1]; ibogaine IC50 versus PCP IC50): ~ 9 fold; nH [2, 8]: 1.01 ±0.11; nH ([2]; Resting state): 0.82 ± 0.08; fold higher affinity for desensitized/nicotine-bound than resting/no ligand AChR ([2]; [3H]ibogaine competition, p < 0.05): ~ 2.8 fold; nH [3, 8]: 0.95 ±0.13; nH ([3]; Resting state): 0.79 ± 0.13; fold higher affinity for desensitized than resting AChR ([3]; [3H]TCP competition): ~ 2.6 fold; koff [4]: 0.078 ± 0.002 s⁻¹; kon [4]: 300000 ± 10000 M⁻¹ s⁻¹; ΔG [4]: -8.82 ± 0.024 kcal/mol; Ka (association constant) [4, 9]: 3.47 ± 0.12 µM⁻¹; koff [4, 9]: 0.088 ± 0.001 s⁻¹; kon ([4]; AChR in the resting state (κ-BTx), kon = koff·Ka): 310000 ± 20000 M⁻¹ s⁻¹; association rate constants kon (order of magnitude) ([4]; both conformational states): ~ 10^5 M^−1 s^−1; ΔH^+ (enthalpy change of the transition state) [5, 10]: 12.7 ± 1.8 kJmol^−1; −TΔS° [5, 10]: −29.4 ± 0.3 kJmol-^1; ΔG^20 [5, 10]: −37.0 ± 0.1 kJmol^−1; Ea (energy of activation of the dissociation process) [5, 10]: 15.1 ± 1.8 kJmol^−1; ΔH° [5, 10]: -1.82 ± 0.072 kcal/mol; ΔH^+ (enthalpy change of the transition state) [5, 11]: 11.2 ± 0.7 kJmol^−1; −TΔS° [5, 11]: −26.2 ± 0.7 kJmol-^1; ΔG^20 [5, 11]: −36.7 ± 0.1 kJmol^−1; Ea (energy of activation of the dissociation process) [5, 11]: 13.7 ± 0.7 kJmol^−1; ΔH° [5, 11]: -2.51 ± 0.17 kcal/mol

**Q.** Which “nH (Hill coefficient)” value ([1]; activation of the hα3β4 AChR, Ca2+ influx) does the source give for `Clc1ccc(C2CC3CCC2N3)cn1` (racemic) [(±)-epibatidine, (±)-Epibatidine] here?
**A.** 1.21 ± 0.06

**Q.** With `c1ccc(C2(N3CCCCC3)CCCCC2)cc1` [PCP, phencyclidine] as the compound, how does the IC50 [1] read?
**A.** 8.5 ± 1.4 µM

**Q.** What about the “fold higher inhibitory potency in the hα3β4 AChR than in the muscle AChR” value ([1]; compared with muscle AChR value of ref Fryer and Lukas, 1999) of the same compound?
**A.** ~ 2 fold

**Q.** What about the “nH (Hill coefficient)” value ([1]; inhibition of (±)-epibatidine-induced Ca2+ influx, HEK293-hα3β4 cells) of the same compound?
**A.** 0.92 ± 0.02

**Q.** What about the Ki [2] of the same compound?
**A.** 17 ± 2 µM

**Q.** And the nH ([2]; Resting state)?
**A.** 0.88 ± 0.07

**Q.** What about the “times lower affinity compared to ibogaine” value ([2]; resting hα3β4 AChR, Table 2 values) of the same compound?
**A.** 10–16 times

**Q.** And the Ki [3]?
**A.** 10 ± 2 µM

**Q.** And the nH ([3]; Resting state)?
**A.** 0.87 ± 0.10

**Q.** And the IC50 [6]?
**A.** 7 ± 1.3 µM

**Q.** Which “specific activity (number of binding sites, Bmax)” value ([7]; HEK293-hα3β4 membranes, x-intersect of Scatchard plot) does the source give for [^3H]ibogaine here?
**A.** 3.9 ± 0.4 pmol/mg protein

**Q.** What about the Kd ([7]; resting (no ligand) state, Rosenthal-Scatchard plot) of the same compound?
**A.** 0.46 ± 0.06 µM
